# Entries after “also recorded” stand apart in the source; their conditions may differ. Where a name gives a salt, the structure may show the parent alone.
# Columns and labels:
# [1] = toxic effects of active doses in antiarrhythmic tests
# Source text: (§1) Thus, acid-addition salts formed by admixture of a γ-piperidino-butyrophenone base with an equivalent of an acid, suitably in a neutral solvent, are formed with such acids as sulfuric, phosphoric, hydrochloric, hydrobromic, citric, lactic, tartaric, acetic, and related acids. For purposes of this invention, the substituted γ-piperidino-butyrophenones are equivalent to their non-toxic acid-addition salts. The antiarrhythmic activity of the compounds of the present invention compared with that of some clinically used antiarrhythmic drugs was determined as follows. The compounds were tested for their ability to prevent and reverse ouabain-induced arrhythmias in conscious rabbits, and the method used was essentially according to Basil et al. (Brit. J. Pharmacol. 1974, 50, 323- 33).
# [2] = tested on: ouabain-induced arrhythmia; experiment: ouabain-induced arrhythmia in conscious rabbits, curative effect (reversal); type: in vivo, rabbit; details: reversal at least 1 min within 10 minutes
# Source text: as §1, with “follows.” for “follows. The compounds were tested for their ability to prevent and reverse ouabain-induced arrhythmias in conscious rabbits, and the method used was essentially according to Basil et al. (Brit. J. Pharmacol. 1974, 50, 323- 33).”
# (§2) Intravenous infusion of ouabain to conscious rabbits produces ventricular arrhythmias of short duration. An increase in the minimal dose of ouabain required to produce an arrhythmia may be taken as a measure of the antiarrhythmic action of the drug.
# A substance was considered curative, if it was able to reverse the ouabain-induced arrhythmia for at least 1 min. within 10 minutes after the injection.
# [3] = tested on: ouabain-induced arrhythmias; experiment: ouabain-induced arrhythmia in conscious rabbits, prophylactic effect; type: in vivo, rabbit; details: for arrhythmogenic dose of ouabain increased to more than 110 %, number of rabbits: 1 minute before ouabain; for arrhythmogenic dose of ouabain in % of control arrhythmogenic dose, m ± SD: physiol. saline 96 ± 14; for antiarrhythmic activity compared with clinically used drugs: prophylactic and curative effect
# Source text: as §1, with “follows.” for “follows. The compounds were tested for their ability to prevent and reverse ouabain-induced arrhythmias in conscious rabbits, and the method used was essentially according to Basil et al. (Brit. J. Pharmacol. 1974, 50, 323- 33).”
# as §2
# In all experiments with drug treatment the control dose of ouabain required to produce arrhythmias in an animal was obtained the day before.
# The test compound was administered intravenously to rabbits 1 minute before the ouabain challenge, and the arrhythmogenic dose of ouabain after treatment was evaluated in percent of the control arrhythmogenic dose. If this dose amounts to more the 110 % of the control arrhythmogenic dose recorded the day before, the test compound is regarded as having antiarrhymic activity.
# [4] = tested on: arrhythmia induced by aconitine; details: in vivo; cited from earlier work
# [5] = tested on: ouabain-induced ventricular tachycardia and fibrillation; details: anaesthetized guinea pigs, effective dosage; cited from earlier work
# [6] = tested on: cardiac arrhythmia; details: cited from earlier work
# [7] = tested on: ventricular arrhythmia; experiment: intravenous metylperone in patients with myocardial infarction, ventricular arrhythmia and side effects; type: in vivo, human patients
# Source text: Equi-antiarrhythmic doses of previously used drugs produce various cardiovascular side effects as well as agitation and confusion.
# [8] = tested on: cardiac effects of catecholamines; details: Tuck 1973; Petersen 1974; cited from earlier work
# [9] = tested on: arrhythmia induced by aconitine; experiment: aconitine-induced arrhythmia; type: in vivo; details: 0.1-10.0 mg/kg
# [10] = tested on: ventricular extrasystoles (VES); experiment: double-blind clinical test, ventricular extrasystoles in coronary care unit patients; type: in vivo, human patients
# Description: All patients with ventricular extrasystoles (VES) admitted to a coronary care unit suspected of having acute myocardial infarction are included in the investigation. This was carried out in a double-blind manner with metylperone against placebo (metylperone injectable without metylperone). When a patient arrives at the unit, they are monitored on an oscilloscope for registration of the electrocardiogram (ECG). In a 1 hour long period of observation the patient is characterized in respect to the type and the frequency of the arrhythmia. Depending on this and on the estimated age of the infarction, the patient is distributed to one of four groups. A bottle (metylperone or placebo) is chosen from a box, containing identical bottles, and in the following 10 minutes a total of 50 mg metylperone (or placebo) is injected intravenously as 5 injections with 2 min. intervals. The ECG registration is continued for 2 hours. All ECGes in the three hours period are analyzed manually and the arrhythmias are recorded according to frequency and type. The psychic status and the cardiovascular status are checked several times during the three hours.
# [11] = tranquilizing effect; details: in vivo
smiles,measurement,setting,value
"CCCC1(CC)CCN(CCCC(=O)c2ccc(F)cc2)CC1 [FG 5226, 4-fluoro-γ-(4-ethyl-4-n-propyl-piperidino)-butyrophenone]",toxic effects of the active doses,[1]; active antiarrhythmic doses,In contrast to metylperone and FG 5226 the active doses of the known antiarrhythmic drugs produced various toxic effects
same,"curative effect, number of rabbits reversed/tested",[2]; 0.1 mg/kg i.v.,3/4
same,"curative effect, number of rabbits reversed/tested",[2]; 1.0 mg/kg i.v.,2/4
same,"arrhythmogenic dose of ouabain increased to more than 110 %, number of rabbits","[3]; 0.1 mg/kg i.v., 4 rabbits",3 number of rabbits
same,"arrhythmogenic dose of ouabain in % of control arrhythmogenic dose, m ± SD",[3]; 0.1 mg/kg i.v.,109 ± 21 % of control arrhythmogenic do
same,antiarrhythmic activity compared with clinically used drugs,[3]; 0.1 mg/kg i.v.,"more effective than lidocaine 1-5 mg/kg, procainamide 1- 10 mg/kg, quinidine 1 mg/kg, and propranolol 0.5 mg/kg; also recorded: equiactive (i.e., equally active) with quinidine 10 mg/kg, and propranolol 2 mg/kg"
same,"arrhythmogenic dose of ouabain increased to more than 110 %, number of rabbits","[3]; 1.0 mg/kg i.v., 4 rabbits",1 number of rabbits
same,"arrhythmogenic dose of ouabain in % of control arrhythmogenic dose, m ± SD",[3]; 1.0 mg/kg i.v.,93 ± 18 % of control arrhythmogenic do
NC(=O)OC1CCN(CCCC(=O)c2ccc(F)cc2)C2CCCCC12 (stereo not shown) [L 7810],inhibition of arrhythmia induced by aconitine,[4],inhibit arrhythmia induced by aconitine
same,antagonism of ouabain-induced ventricular tachycardia and fibrillation,[5],0.3 to 3 mg/kg
same,antiarrhythmic properties / activity of prior art compounds,[6],exert antiarrhythmic properties
"CCN(CC)CC(=O)Nc1c(C)cccc1C [Lidocaine, lidocaine]","curative effect, number of rabbits reversed/tested",[2]; 1.0 mg/kg i.v.,1/3
same,"curative effect, number of rabbits reversed/tested",[2]; 5.0 mg/kg i.v.,2/4
same,"arrhythmogenic dose of ouabain increased to more than 110 %, number of rabbits","[3]; 1.0 mg/kg i.v., 4 rabbits",0 number of rabbits
same,"arrhythmogenic dose of ouabain in % of control arrhythmogenic dose, m ± SD",[3]; 1.0 mg/kg i.v.,73 ± 25 % of control arrhythmogenic do
same,"arrhythmogenic dose of ouabain increased to more than 110 %, number of rabbits","[3]; 5.0 mg/kg i.v., 5 rabbits",0 number of rabbits
same,"arrhythmogenic dose of ouabain in % of control arrhythmogenic dose, m ± SD",[3]; 5.0 mg/kg i.v.,91 ± 21 % of control arrhythmogenic do
"CC1CCN(CCCC(=O)c2ccc(F)cc2)CC1 [Metylperone, 4-fluoro-γ-(4-methyl-piperidino)-butyrophenone hydrochloride]",side effects during treatment of cardiac arrhythmia,"[7]; human, in vivo",lack of side effects
same,side effects in patients,"[7]; human, in vivo, iv",without producing side effects
same,inhibition of ventricular arrhythmia in patients with myocardial infarction,[7]; intravenous injection 10-50 mg,inhibit ventricular arrhythmia in patients with myocardial infarction
same,toxic effects of the active doses,[1]; in vivo,In contrast to metylperone and FG 5226 the active doses of the known antiarrhythmic drugs produced various toxic effects
same,"curative effect, number of rabbits reversed/tested",[2]; 0.1 mg/kg i.v.,5/5
same,"curative effect, number of rabbits reversed/tested",[2]; 1.0 mg/kg i.v.,5/5
same,potentiation of catecholamines,[8],does not potentiate the cardiac effects of catecholamines
same,aconitine inhibitory effect,[9],no aconitine inhibitory effect
same,antiarrhythmic effect in patients with acute myocardial infarction,[10]; 50 mg i.v.,has an antiarrhythmic effect in patients with acute myocardial infarction
same,"mean total VES ± SD, 0 - 60 min. after inj.","[10]; AMI patients, N = 6, 50 mg i.v., placebo 418 ± 394",212 ± 138
same,"mean total VES ± SD, 61 - 120 min. after inj.","[10]; AMI patients, N = 6, 50 mg i.v., placebo 644 ± 815",93 ± 89
same,"mean total VES ± SD, control hour","[10]; AMI patients, N = 6, before injection (baseline)",372 ± 148
same,"mean total VES ± SD, 0 - 60 min. after inj.","[10]; not AMI patients, N = 2, 50 mg i.v., placebo 643 ± 290",251 ± 85
same,"mean total VES ± SD, 61 - 120 min. after inj.","[10]; not AMI patients, N = 2, 50 mg i.v., placebo 695 ± 240",348 ± 28
same,"mean total VES ± SD, control hour","[10]; not AMI patients, N = 2, before injection (baseline)",321 ± 18
same,activity against ouabain-induced ventricular tachycardia in conscious rabbits,[3]; 0.1 mg/kg,extremely active
same,"arrhythmogenic dose of ouabain increased to more than 110 %, number of rabbits","[3]; 0.1 mg/kg i.v., 4 rabbits",3 number of rabbits
same,"arrhythmogenic dose of ouabain in % of control arrhythmogenic dose, m ± SD",[3]; 0.1 mg/kg i.v.,129 ± 20 % of control arrhythmogenic do
same,antiarrhythmic activity compared with clinically used drugs,"[3]; 0.1 mg/kg i.v., hydrochloride","more effective than lidocaine 1-5 mg/kg, procainamide 1- 10 mg/kg, quinidine 1 mg/kg, and propranolol 0.5 mg/kg; also recorded: equiactive (i.e., equally active) with quinidine 10 mg/kg, and propranolol 2 mg/kg"
same,"arrhythmogenic dose of ouabain increased to more than 110 %, number of rabbits","[3]; 1.0 mg/kg i.v., 4 rabbits",3 number of rabbits
same,"arrhythmogenic dose of ouabain in % of control arrhythmogenic dose, m ± SD",[3]; 1.0 mg/kg i.v.,126 ± 30 % of control arrhythmogenic do
same,tranquilizing effect,[11],has a tranquilizing effect
"CCN(CC)CCNC(=O)c1ccc(N)cc1 [Procainamide, procainamide]","curative effect, number of rabbits reversed/tested",[2]; 1.0 mg/kg i.v.,0/4
same,"curative effect, number of rabbits reversed/tested",[2]; 10.0 mg/kg i.v.,2/4
same,"arrhythmogenic dose of ouabain increased to more than 110 %, number of rabbits","[3]; 1.0 mg/kg i.v., 4 rabbits",2 number of rabbits
same,"arrhythmogenic dose of ouabain in % of control arrhythmogenic dose, m ± SD",[3]; 1.0 mg/kg i.v.,111 ± 18 % of control arrhythmogenic do
same,"arrhythmogenic dose of ouabain increased to more than 110 %, number of rabbits","[3]; 10.0 mg/kg i.v., 4 rabbits",1 number of rabbits
same,"arrhythmogenic dose of ouabain in % of control arrhythmogenic dose, m ± SD",[3]; 10.0 mg/kg i.v.,104 ± 20 % of control arrhythmogenic do
same,antiarrhythmic properties / activity of prior art compounds,[6],activity as antiarrhythmic agents
same,toxic effects of prior art antiarrhythmic drugs,[6],various toxic effects
"CC(C)NCC(O)COc1cccc2ccccc12 (stereo not shown) [Propranolol, propranolol]","curative effect, number of rabbits reversed/tested",[2]; 0.5 mg/kg i.v.,1/5
same,"curative effect, number of rabbits reversed/tested",[2]; 2.0 mg/kg i.v.,4/4
same,"arrhythmogenic dose of ouabain increased to more than 110 %, number of rabbits","[3]; 0.5 mg/kg i.v., 4 rabbits",2 number of rabbits
same,"arrhythmogenic dose of ouabain in % of control arrhythmogenic dose, m ± SD",[3]; 0.5 mg/kg i.v.,98 ± 28 % of control arrhythmogenic do
same,"arrhythmogenic dose of ouabain increased to more than 110 %, number of rabbits","[3]; 2.0 mg/kg i.v., 4 rabbits",3 number of rabbits
same,"arrhythmogenic dose of ouabain in % of control arrhythmogenic dose, m ± SD",[3]; 2.0 mg/kg i.v.,121 ± 26 % of control arrhythmogenic do
same,antiarrhythmic properties / activity of prior art compounds,[6],activity as antiarrhythmic agents
same,toxic effects of prior art antiarrhythmic drugs,[6],various toxic effects
"C=C[C@H]1C[N@@]2CC[C@H]1C[C@@H]2[C@@H](O)c1ccnc2ccc(OC)cc12 [Quinidine, quinidine]","curative effect, number of rabbits reversed/tested",[2]; 1.0 mg/kg i.v.,2/4
same,"curative effect, number of rabbits reversed/tested",[2]; 10.0 mg/kg i.v.,4/4
same,"arrhythmogenic dose of ouabain increased to more than 110 %, number of rabbits","[3]; 1.0 mg/kg i.v., 4 rabbits",2 number of rabbits
same,"arrhythmogenic dose of ouabain in % of control arrhythmogenic dose, m ± SD",[3]; 1.0 mg/kg i.v.,104 ± 10 % of control arrhythmogenic do
same,"arrhythmogenic dose of ouabain increased to more than 110 %, number of rabbits","[3]; 10.0 mg/kg i.v., 4 rabbits",3 number of rabbits
same,"arrhythmogenic dose of ouabain in % of control arrhythmogenic dose, m ± SD",[3]; 10.0 mg/kg i.v.,131 ± 42 % of control arrhythmogenic do
same,antiarrhythmic properties / activity of prior art compounds,[6],activity as antiarrhythmic agents
same,toxic effects of prior art antiarrhythmic drugs,[6],various toxic effects
CN(C)CCCN1c2ccccc2Sc2ccc(Cl)cc21 [chlorpromazine],potentiation of catecholamines,[8],potentiation of catecholamines

# Reference: US4021563A, “Method of treating cardiac arrhythmia with γ-piperidino-butyrophenones” (priority 1975, dated 1977)
